Experiment [1] has as its target T1, EGFR wild type (Homo sapiens, UniProt P00533).
T1 construct: purchased Carna Bio
Put plainly: Inhibition of EGFR wild type biochemical enzymatic activity (HTRF). Conditions: EGFR WT, 1 mM ATP, 1 h, room temperature, read-out: IC50 (nM) @WT. In outline: (§1)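 Enzyme preincubated with compound, then ATP (1 mM) and TK substrate-biotin (1 μM) added; 1 h RT; stopped with EDTA-containing detection mix; HTRF read (ex 320, em 615/665 nm); IC50 by 4-parameter logistic fit.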
(TR-FRET usually uses a lanthanide donor and a delayed reading to cut background.)

The target in experiment [2] is T2, EGFR L858R (Homo sapiens, UniProt P00533, L858R).
T2 construct: purchased Carna Bio
T2 sequence (P00533 25-1210 L858R): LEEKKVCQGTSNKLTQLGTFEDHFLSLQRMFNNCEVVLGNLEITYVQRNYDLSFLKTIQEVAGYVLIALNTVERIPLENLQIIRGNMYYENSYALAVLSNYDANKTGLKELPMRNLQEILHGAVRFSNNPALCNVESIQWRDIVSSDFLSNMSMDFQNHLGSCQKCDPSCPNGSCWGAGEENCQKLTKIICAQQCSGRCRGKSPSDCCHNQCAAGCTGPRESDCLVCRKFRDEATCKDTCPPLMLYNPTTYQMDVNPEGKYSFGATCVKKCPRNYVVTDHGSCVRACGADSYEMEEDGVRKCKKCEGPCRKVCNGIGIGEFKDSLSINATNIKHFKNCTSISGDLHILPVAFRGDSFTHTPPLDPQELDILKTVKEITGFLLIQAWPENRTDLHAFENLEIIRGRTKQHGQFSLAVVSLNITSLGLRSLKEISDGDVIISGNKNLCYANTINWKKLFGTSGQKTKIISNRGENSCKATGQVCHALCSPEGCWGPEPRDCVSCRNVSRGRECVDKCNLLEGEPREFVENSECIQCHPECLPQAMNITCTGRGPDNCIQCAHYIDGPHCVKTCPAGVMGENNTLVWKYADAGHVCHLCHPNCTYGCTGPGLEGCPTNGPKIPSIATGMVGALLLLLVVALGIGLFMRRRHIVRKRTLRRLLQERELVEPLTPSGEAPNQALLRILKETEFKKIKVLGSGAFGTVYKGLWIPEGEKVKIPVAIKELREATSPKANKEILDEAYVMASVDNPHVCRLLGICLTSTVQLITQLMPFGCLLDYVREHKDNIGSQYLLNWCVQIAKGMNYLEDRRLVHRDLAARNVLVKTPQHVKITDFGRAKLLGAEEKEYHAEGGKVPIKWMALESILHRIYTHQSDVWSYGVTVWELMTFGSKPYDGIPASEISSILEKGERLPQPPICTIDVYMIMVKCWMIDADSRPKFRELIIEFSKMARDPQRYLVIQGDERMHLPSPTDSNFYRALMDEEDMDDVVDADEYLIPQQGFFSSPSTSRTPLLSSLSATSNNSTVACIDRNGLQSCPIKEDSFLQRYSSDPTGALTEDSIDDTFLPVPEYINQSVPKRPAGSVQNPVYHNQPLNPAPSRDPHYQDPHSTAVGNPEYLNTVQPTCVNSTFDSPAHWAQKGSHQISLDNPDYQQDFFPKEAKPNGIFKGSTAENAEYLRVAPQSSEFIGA
Put plainly: Inhibition of EGFR L858R biochemical enzymatic activity (HTRF). Conditions: 1 mM ATP, 1 h, room temperature, read-out: IC50 (nM) @L858R. In outline: as §1

In experiment [3] the target is T3, EGFR L858R/T790M (Homo sapiens, UniProt P00533, L858R/T790M).
T3 construct: purchased Carna Bio
T3 sequence (P00533 25-1210 T790M/L858R): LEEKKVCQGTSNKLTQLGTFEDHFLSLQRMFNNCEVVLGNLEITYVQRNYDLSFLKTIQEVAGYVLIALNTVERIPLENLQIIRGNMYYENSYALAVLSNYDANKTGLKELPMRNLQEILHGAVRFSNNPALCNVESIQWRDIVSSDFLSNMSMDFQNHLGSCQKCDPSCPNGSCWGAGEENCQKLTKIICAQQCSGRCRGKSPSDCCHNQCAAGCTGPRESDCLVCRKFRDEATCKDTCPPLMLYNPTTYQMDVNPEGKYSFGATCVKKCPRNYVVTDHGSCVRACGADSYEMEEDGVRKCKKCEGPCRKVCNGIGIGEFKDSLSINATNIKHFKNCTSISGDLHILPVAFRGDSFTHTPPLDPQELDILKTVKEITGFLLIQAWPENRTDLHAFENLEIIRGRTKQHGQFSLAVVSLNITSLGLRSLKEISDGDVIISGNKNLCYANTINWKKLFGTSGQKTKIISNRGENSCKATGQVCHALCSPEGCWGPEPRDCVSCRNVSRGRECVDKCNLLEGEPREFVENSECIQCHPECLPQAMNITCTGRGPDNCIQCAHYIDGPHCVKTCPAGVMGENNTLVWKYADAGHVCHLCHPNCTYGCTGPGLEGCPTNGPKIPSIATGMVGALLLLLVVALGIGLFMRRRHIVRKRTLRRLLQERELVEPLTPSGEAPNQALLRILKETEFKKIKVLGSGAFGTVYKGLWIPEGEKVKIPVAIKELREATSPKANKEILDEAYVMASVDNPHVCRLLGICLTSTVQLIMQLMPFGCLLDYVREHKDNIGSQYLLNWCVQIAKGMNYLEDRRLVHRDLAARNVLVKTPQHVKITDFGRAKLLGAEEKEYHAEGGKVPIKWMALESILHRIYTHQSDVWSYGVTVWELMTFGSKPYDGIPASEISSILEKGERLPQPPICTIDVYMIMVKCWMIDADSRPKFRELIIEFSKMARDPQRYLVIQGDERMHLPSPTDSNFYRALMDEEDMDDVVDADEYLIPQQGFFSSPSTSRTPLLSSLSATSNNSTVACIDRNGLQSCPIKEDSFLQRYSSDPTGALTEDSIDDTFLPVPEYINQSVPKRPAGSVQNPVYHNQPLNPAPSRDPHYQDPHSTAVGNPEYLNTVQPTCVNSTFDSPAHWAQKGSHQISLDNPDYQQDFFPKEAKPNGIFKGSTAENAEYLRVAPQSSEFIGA
The experiment is described as follows: Inhibition of EGFR L858R/T790M biochemical enzymatic activity (HTRF). To be noted: EGFR L858R-T790M, 1 mM ATP, 1 h, room temperature, read-out: IC50 (nM) @L858R-T790M. In outline:
as §1

Experiment [4] concerns the target T4, EGFR Exon19Del (Homo sapiens, UniProt P00533, DEL746-750).
T4 construct: purchased Carna Bio
The experiment is described as follows: Inhibition of EGFR Exon19Del biochemical enzymatic activity (HTRF). To be noted: EGFR Del19, 1 mM ATP, 1 h, room temperature, read-out: IC50 @Del19. Summed up: as §1

Experiment [5] has as its target T5, EGFR Exon19Del/T790M (Homo sapiens, UniProt P00533, DEL746-750/T790M).
T5 construct: purchased Carna Bio
The experiment is described as follows: Inhibition of EGFR Exon19Del/T790M biochemical enzymatic activity (HTRF). To be noted: EGFR Del19-T790M, 1 mM ATP, 1 h, room temperature, read-out: IC50 (nM) @Del19-T790M. In outline: as §1

Experiment [6] deals with T6, EGFR[T790M/C797S/L858R] (Homo sapiens, UniProt P00533, C797S/L858R/T790M).
T6 construct: purchased Carna Bio
Put plainly: Inhibition of EGFR[T790M/C797S/L858R] biochemical enzymatic activity (HTRF). To be noted: EGFR T790M-C797S-L858R, 1 mM ATP, 1 h, room temperature, read-out: IC50 (nM) @T790M- C797S - L858R. Summed up: as §1

For experiment [7], the target named is T7, EGFR[T790M/C797S/d746-750] (Homo sapiens, UniProt P00533, C797S/DEL746-750/T790M).
T7 construct: purchased Carna Bio
T7 sequence (P00533 with tags, fused parts or gaps DEL746-750/T790M/C797S limits assumed): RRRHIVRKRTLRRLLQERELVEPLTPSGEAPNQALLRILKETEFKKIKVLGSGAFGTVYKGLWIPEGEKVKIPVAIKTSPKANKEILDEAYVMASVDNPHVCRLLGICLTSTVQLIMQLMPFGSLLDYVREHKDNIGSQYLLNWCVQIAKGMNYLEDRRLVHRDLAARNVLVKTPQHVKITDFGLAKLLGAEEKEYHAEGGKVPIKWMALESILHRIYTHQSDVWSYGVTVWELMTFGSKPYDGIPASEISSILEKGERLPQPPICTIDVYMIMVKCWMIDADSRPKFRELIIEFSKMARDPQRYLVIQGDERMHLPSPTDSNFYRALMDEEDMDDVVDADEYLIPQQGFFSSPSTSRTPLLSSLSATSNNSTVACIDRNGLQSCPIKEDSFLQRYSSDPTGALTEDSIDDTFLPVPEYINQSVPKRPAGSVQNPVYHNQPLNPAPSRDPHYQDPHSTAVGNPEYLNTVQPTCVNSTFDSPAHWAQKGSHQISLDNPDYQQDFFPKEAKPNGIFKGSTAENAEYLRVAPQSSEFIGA
The experiment is described as follows: Inhibition of EGFR[T790M/C797S/d746-750] biochemical enzymatic activity (HTRF). Conditions: EGFR T790M-C797S-Del19, 1 mM ATP, 1 h, room temperature, read-out: IC50 (nM) @T790M - C797S - Del19. Summed up:
as §1

The target of experiment [8] is T8, EGFR (d746-750 C797S) (Homo sapiens, UniProt P00533, C797S/DEL746-750).
T8 construct: purchased signalchem
The experiment is described as follows: Inhibition of EGFR (d746-750 C797S) biochemical enzymatic activity (HTRF). To be noted: EGFR Del19-C797S, 1 mM ATP, 1 h, room temperature, read-out: IC50 (nM) @Del19-C797S. In outline: as §1

In experiment [9] the target is T9, EGFR (C797S L858R) (Homo sapiens, UniProt P00533, C797S/L858R).
T9 construct: purchased signalchem
Put plainly: Inhibition of EGFR (C797S L858R) biochemical enzymatic activity (HTRF). To be noted: EGFR L858-C797S, 1 mM ATP, 1 h, room temperature, read-out: IC50 (nM) @L858-C797S. Summed up:
as §1

Experiment [10] has as its system Ba/F3 cells expressing EGFR mutations. The experiment is described as follows: Cell proliferation assay, Ba/F3 cells expressing EGFR mutations (CellTiter-Glo, 72 hours). The class given is cell-based. Conditions: CellTiter-Glo. In outline: (§2)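 GI50 is the concentration giving 50% proliferation inhibition. Growth for this was normalised to a baseline viability reading taken when compound was added, and to DMSO wells. PC-9 (500 cells/well) and mutant-EGFR Ba/F3 (5000 cells/well) are treated after overnight seeding in RPMI1640-based medium.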

In experiment [11] the test system is PC-9. Put plainly: Cell proliferation assay, PC-9 cells (CellTiter-Glo, 72 hours). It is filed as cell-based. To be noted: PC9 cells, CellTiter-Glo, read-out: PC9 GI50. In outline:
as §2
Background: In ATP-based viability assays light output follows the ATP content of the culture.

In experiment [12] the test system is A-431. The experiment is described as follows: Cell proliferation GI50, A-431 cells (Table 6). It is filed as cell-based.
[13] abbreviates: BaF3 cells, EGFR DEL19-C797S, read-out: DEL19-C797S/BaF3 GI50.
Where [14] appears, read: BaF3 cells, EGFR DEL19-T790-C797S, read-out: DEL19-T790-C797S/BaF3 GI50.
The mark [15] stands for this setting: BaF3 cells, EGFR L858R, read-out: L858R/BaF3 GI50.
[16] abbreviates: BaF3 cells, EGFR L858R-C797S, read-out: L858R-C797S/BaF3 GI50.
[17] abbreviates: BaF3 cells, EGFR L858R-T790-C797S, read-out: L858R-T790-C797S/BaF3 GI50.
[18] abbreviates: BaF3 cells, EGFR L858R-T790M, read-out: L858R-T790M/BaF3 GI50.
Where [19] appears, read: EGFR DEL19-T790M, read-out: DEL19-T790M GI50.
Setting [20] is: Homo sapiens, A-431, A-431 cells.

The text below walks through data of US20260365670A1, “EGFR INHIBITORS AND USES THEREOF” (DIZAL (JIANGSU) PHARMACEUTICAL CO., LTD., priority 2022, published 2026).

Where two headings read alike, the source gives them in different places.

T1 sequence (P00533 25-1210): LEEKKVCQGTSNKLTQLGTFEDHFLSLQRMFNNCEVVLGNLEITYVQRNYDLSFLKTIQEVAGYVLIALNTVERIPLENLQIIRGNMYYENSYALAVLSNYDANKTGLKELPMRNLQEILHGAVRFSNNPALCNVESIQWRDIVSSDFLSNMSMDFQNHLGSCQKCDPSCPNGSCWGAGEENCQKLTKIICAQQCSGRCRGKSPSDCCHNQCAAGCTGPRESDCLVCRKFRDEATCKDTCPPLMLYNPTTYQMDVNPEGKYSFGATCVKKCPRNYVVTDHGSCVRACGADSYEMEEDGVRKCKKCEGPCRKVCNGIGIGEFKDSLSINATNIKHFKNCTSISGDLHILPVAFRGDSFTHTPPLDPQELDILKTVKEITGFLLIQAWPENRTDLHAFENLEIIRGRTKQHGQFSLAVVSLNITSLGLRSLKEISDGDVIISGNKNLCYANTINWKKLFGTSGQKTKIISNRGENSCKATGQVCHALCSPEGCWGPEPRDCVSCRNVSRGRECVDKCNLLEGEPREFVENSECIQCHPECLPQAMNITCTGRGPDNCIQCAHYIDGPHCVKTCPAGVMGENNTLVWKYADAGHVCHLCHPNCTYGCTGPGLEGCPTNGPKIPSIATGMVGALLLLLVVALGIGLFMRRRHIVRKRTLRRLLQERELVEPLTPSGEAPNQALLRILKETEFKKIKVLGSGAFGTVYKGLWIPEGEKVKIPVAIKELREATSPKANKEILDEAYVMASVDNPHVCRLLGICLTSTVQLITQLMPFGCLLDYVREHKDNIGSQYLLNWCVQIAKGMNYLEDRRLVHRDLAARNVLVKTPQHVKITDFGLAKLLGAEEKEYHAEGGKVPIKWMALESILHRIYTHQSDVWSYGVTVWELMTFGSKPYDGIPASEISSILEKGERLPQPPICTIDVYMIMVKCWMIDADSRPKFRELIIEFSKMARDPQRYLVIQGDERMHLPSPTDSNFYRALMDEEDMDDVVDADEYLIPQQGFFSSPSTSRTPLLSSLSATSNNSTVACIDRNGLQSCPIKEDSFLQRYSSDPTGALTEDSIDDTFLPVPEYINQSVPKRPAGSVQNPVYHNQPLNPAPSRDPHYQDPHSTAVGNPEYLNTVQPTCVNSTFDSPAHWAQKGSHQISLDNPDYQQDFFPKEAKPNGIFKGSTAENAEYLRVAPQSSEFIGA
T4 sequence (P00533 with tags, fused parts or gaps DEL746-750 limits assumed): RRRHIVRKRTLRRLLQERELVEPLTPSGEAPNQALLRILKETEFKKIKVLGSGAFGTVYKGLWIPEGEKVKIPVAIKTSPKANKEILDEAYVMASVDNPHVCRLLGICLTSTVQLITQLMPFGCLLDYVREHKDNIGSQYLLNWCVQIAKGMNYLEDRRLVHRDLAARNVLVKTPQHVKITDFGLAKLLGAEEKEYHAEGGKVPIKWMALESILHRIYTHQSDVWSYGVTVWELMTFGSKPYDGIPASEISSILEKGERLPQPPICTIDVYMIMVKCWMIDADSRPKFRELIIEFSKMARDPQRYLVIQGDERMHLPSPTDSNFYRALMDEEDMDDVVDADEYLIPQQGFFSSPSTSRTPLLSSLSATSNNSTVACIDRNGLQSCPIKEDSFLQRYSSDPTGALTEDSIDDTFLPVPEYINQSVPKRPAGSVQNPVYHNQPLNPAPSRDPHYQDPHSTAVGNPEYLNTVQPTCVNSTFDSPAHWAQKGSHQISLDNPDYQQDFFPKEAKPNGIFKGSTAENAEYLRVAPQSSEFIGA

On to `CN1CCC2(CCN(c3ccc4nc5n(c4c3)C34CCC(CN(CCOc6c(cnn6C)-c6cc(cn(C)c6=O)C(=O)N5)C3)C4)CC2)C1` (single isomer, unassigned) [Example A82B], for which the IC50 is 0.92 nM in experiment [1]; 0.87 nM in experiment [2]; 1.8 nM in experiment [3]; 1.1 nM in experiment [4]; 2.1 nM in experiment [5]; 1.7 nM in experiment [6]. Moreover, the IC50 in experiment [7] was 2 nM; in [8], 0.87 nM; in experiment [9], 1.4 nM. For the same compound, the GI50 in experiment [10] (setting [13]) turned out to be 0.77 nM; in experiment [10] (setting [14]) it was 0.86 nM; in experiment [10] (setting [15]), 0.78 nM; in experiment [10] (setting [16]) it was 0.68 nM; in experiment [10] (setting [17]), 1 nM; in experiment [10] (setting [18]), 0.82 nM. Further, the GI50 in experiment [10] (setting [19]) came to 0.9 nM; in experiment [11] it was 2.4 nM; in experiment [12] (setting [20]) it was 203 nM.
For `CN(C)C1CN(c2ccc3nc4n(c3c2)C23CCC(CN(CCOc5c(cnn5C)-c5cc(cn(C)c5=O)C(=O)N4)C2)C3)CC1F` (single isomer, unassigned) [Example A84A, 15,21-Dimethyl-5-[4-fluoro-3-(N,N-dimethylamino)pyrrolidinyl]-23-oxa-2,9,11,15,20,21,26-heptaazaheptacyclo[24.4.1.1^{1,28}.1^{13,17}.0^{2,10}.0^{3,8}.0^{18,22}]tritriaconta-3,5,7,9,13,17(33),18(22),19-octaene-12,16-dione], the IC50 in experiment [1] was more than 5000 nM; in [2], 830 nM; in experiment [3] it was more than 5000 nM; in experiment [4] it was 226 nM; in [5], more than 5000 nM; in [6], more than 5000 nM. Moreover, the IC50 in [7] is more than 5000 nM; in experiment [8], 258 nM; in experiment [9] it was 1180 nM. The GI50 in experiment [10] (setting [13]) is 98 nM; in [10] (setting [14]), 232 nM; in experiment [10] (setting [15]), 311 nM; in experiment [10] (setting [16]) it was 190 nM; in experiment [10] (setting [17]), 362 nM; in [10] (setting [18]) it was 402 nM. The GI50 in experiment [10] (setting [19]) was found to be 171 nM; in [11], 214 nM; in experiment [12] (A-431 cells), 3990 nM.
Regarding `CCC1CCCOc2c(cnn2C)-c2cc(cn(C)c2=O)C(=O)Nc2nc3ccc(N4CCN(C)CC4)cc3n2C1` (single isomer, unassigned) [Example A16A, 11-Ethyl-5,26-dimethyl-16-(4-methylpiperazin-1-yl)-7-oxa-4,5,13,20,22,26-hexaazapentacyclo[22.3.1.0^{2,6}.0^{13,21}.0^{14,19}]octacosa-1(28),2(6),3,14,16,18,20,24-octaene-23,27-dione], the IC50 was more than 5000 nM in [1]; more than 5000 nM in [2]; more than 5000 nM in experiment [3]; 150 nM in experiment [4]; 127 nM in experiment [5]; more than 5000 nM in experiment [6]. The IC50 was determined as 115 nM in [7], 152 nM in experiment [8] and 1350 nM in [9]. Besides, the GI50 in experiment [10] (setting [13]) came out at 73 nM; in experiment [10] (setting [14]), 122 nM; in experiment [10] (setting [15]), 182 nM; in [10] (setting [16]), 113 nM; in [10] (setting [17]) it was 161 nM; in experiment [10] (setting [18]), 165 nM. Moreover, the GI50 worked out at 117 nM in [10] (setting [19]); 139 nM in [11] (Homo sapiens, PC-9, 72 h); 95 nM in [12] (A-431 cells).
Regarding `CN1CCN(c2ccc3nc4n(c3c2)C23CCC(CC2)CN(CCOc2c(cnn2C)-c2cc(cn(C)c2=O)C(=O)N4)C3)CC1` [Example A75, 15,21-Dimethyl-5-(4-methylpiperazin-1-yl)-23-oxa-2,9,11,15,20,21,26-heptaazaheptacyclo[26.2.2.1^{1,26}.1^{13,17}.0^{2,10}.0^{3,8}.0^{18,22}]tetratriaconta-3,5,7,9,13,17(34),18(22),19-octaene-12,16-dione], the IC50 in experiment [1] turned out to be 672 nM; in experiment [2] it was 44 nM; in [3] it was 6 nM; in experiment [4], 3.3 nM; in [5], 3.8 nM; in experiment [6] it was 8 nM. In addition, the figures for the IC50 in experiment [7], in [8] and in experiment [9] were 3.4 nM, 2.8 nM and 35 nM, respectively. Further, the GI50 in experiment [10] (Mus musculus, BaF3, 72 h, BaF3 cells, EGFR DEL19-C797S, read-out: DEL19-C797S/BaF3 GI50) turned out to be 2.5 nM; in experiment [10] (Mus musculus, BaF3, 72 h, BaF3 cells, EGFR DEL19-T790-C797S, read-out: DEL19-T790-C797S/BaF3 GI50), 27 nM; in experiment [10] (Mus musculus, BaF3, 72 h, BaF3 cells, EGFR L858R, read-out: L858R/BaF3 GI50), 21 nM; in [10] (Mus musculus, BaF3, 72 h, BaF3 cells, EGFR L858R-C797S, read-out: L858R-C797S/BaF3 GI50), 21 nM; in experiment [10] (Mus musculus, BaF3, 72 h, BaF3 cells, EGFR L858R-T790-C797S, read-out: L858R-T790-C797S/BaF3 GI50) it was 35 nM; in experiment [10] (Mus musculus, BaF3, 72 h, BaF3 cells, EGFR L858R-T790M, read-out: L858R-T790M/BaF3 GI50) it was 69 nM. Also, the GI50 in experiment [10] (Mus musculus, BaF3, 72 h, EGFR DEL19-T790M, read-out: DEL19-T790M GI50) is 20 nM; in experiment [11] (Homo sapiens, PC-9, 72 h), 44 nM; in experiment [12] (setting [20]), 5420 nM.
Consider `CCN1CCN(c2ccc3nc4n(c3c2)C23CCC(CN(CCOc5c(cnn5C)-c5cc(cn(C)c5=O)C(=O)N4)C2)C3)CC1` (single isomer, unassigned) [Example A107A], for which the IC50 is more than 5000 nM in experiment [1]; 770 nM in experiment [2]; more than 5000 nM in [3]; 267 nM in [4]; 4500 nM in experiment [5]; more than 5000 nM in [6]. Further, the IC50 in experiment [7] was determined as 2860 nM; in experiment [8], 245 nM; in [9], 1040 nM. The GI50 turned out to be 66 nM in experiment [10] (setting [13]); 160 nM in [10] (setting [14]); 240 nM in [10] (setting [15]); 105 nM in experiment [10] (setting [16]); 235 nM in experiment [10] (setting [17]); 332 nM in experiment [10] (setting [18]). Moreover, the GI50 worked out at 183 nM in [10] (setting [19]), 238 nM in experiment [11] and 2420 nM in experiment [12] (A-431 cells).

The IC50 is the concentration that inhibits the measured activity by half.
